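Protocol summary: plate cells (96-well), add compound at 5 concentrations, incubate 48 h, interpolate endpoints linearly. TGI: concentration producing complete growth inhibition.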
Columns and labels:
Assay in all cases: NCI anticancer screen, dose series, 48 h
[1] = system: 786-0 renal
[2] = system: A498 renal
[3] = system: A549 NSCLC
[4] = system: ACHN renal
[5] = system: CAKI-1 renal
[6] = system: CCRF-CEM leukemia
[7] = system: DLD-1 colon
[8] = system: DMS 114 small cell lung
[9] = system: DMS 273 small cell lung
[10] = system: EKVX NSCLC
[11] = system: HCC-2998 colon
[12] = system: HCT-116 colon
[13] = system: HCT-15 colon
[14] = system: HL-60(TB) leukemia
[15] = system: HOP-92 NSCLC
[16] = system: HT29 colon
[17] = system: IGROV1 ovarian
[18] = system: K-562 leukemia
[19] = system: KM20L2 colon
[20] = system: LOX IMVI melanoma
[21] = system: LXFL 529 NSCLC
[22] = system: M14 melanoma
[23] = system: M19-MEL melanoma
[24] = system: MALME-3M melanoma
[25] = system: MOLT-4 leukemia
[26] = system: NCI-H226 lung
[27] = system: NCI-H23 lung
[28] = system: NCI-H460 lung
[29] = system: OVCAR-3 ovarian
[30] = system: OVCAR-4 ovarian
[31] = system: OVCAR-5 ovarian
[32] = system: OVCAR-8 ovarian
[33] = system: RPMI-8226 leukemia
[34] = system: RXF 393 renal
[35] = system: RXF-631 renal
[36] = system: SF-268 CNS
[37] = system: SF-295 CNS
[38] = system: SF-539 CNS
[39] = system: SK-MEL-2 melanoma
[40] = system: SK-MEL-28 melanoma
[41] = system: SK-MEL-5 melanoma
[42] = system: SN12C renal
[43] = system: SNB-19 CNS
[44] = system: SNB-75 CNS
[45] = system: SNB-78 CNS
[46] = system: SR leukemia
[47] = system: SW-620 colon
[48] = system: TK-10 renal
[49] = system: UACC-257 melanoma
[50] = system: UACC-62 melanoma
[51] = system: UO-31 renal
[52] = system: XF 498 CNS
[53] = system: COLO 205 colon
[54] = system: HOP-62 NSCLC
[55] = system: KM12 colon
[56] = system: NCI-H522 lung
[57] = system: SK-OV-3 ovarian
[58] = system: U251 CNS

Structure (SMILES): Cc1cccc(N=C2NC(=O)C(CC(=O)Nc3ccccc3Cl)S2)c1 (centres undefined)
- TGI [1]: > 100 µM
- TGI [2]: > 100 µM
- TGI [3]: > 100 µM
- TGI [4]: > 100 µM
- TGI [5]: > 100 µM
- TGI [6]: > 100 µM
- TGI [7]: > 100 µM
- TGI [8]: > 100 µM
- TGI [9]: > 100 µM
- TGI [10]: > 100 µM
- TGI [11]: > 100 µM
- TGI [12]: > 100 µM
- TGI [13]: > 100 µM
- TGI [14]: > 100 µM
- TGI [15]: > 100 µM
- TGI [16]: > 100 µM
- TGI [17]: > 100 µM
- TGI [18]: > 100 µM
- TGI [19]: > 100 µM
- TGI [20]: > 100 µM
- TGI [21]: > 100 µM
- TGI [22]: > 100 µM
- TGI [23]: > 100 µM
- TGI [24]: > 100 µM
- TGI [25]: > 100 µM
- TGI [26]: > 100 µM
- TGI [27]: > 100 µM
- TGI [28]: > 100 µM
- TGI [29]: > 100 µM
- TGI [30]: > 100 µM
- TGI [31]: > 100 µM
- TGI [32]: > 100 µM
- TGI [33]: > 100 µM
- TGI [34]: > 100 µM
- TGI [35]: > 100 µM
- TGI [36]: > 100 µM
- TGI [37]: > 100 µM
- TGI [38]: > 100 µM
- TGI [39]: > 100 µM
- TGI [40]: > 100 µM
- TGI [41]: > 100 µM
- TGI [42]: > 100 µM
- TGI [43]: > 100 µM
- TGI [44]: > 100 µM
- TGI [45]: > 100 µM
- TGI [46]: > 100 µM
- TGI [47]: > 100 µM
- TGI [48]: > 100 µM
- TGI [49]: > 100 µM
- TGI [50]: > 100 µM
- TGI [51]: > 100 µM
- TGI [52]: > 100 µM

Structure (SMILES): CC(=O)O/N=C/c1cc2c(cc1Br)OCO2
- TGI [1]: > 349 µM
- TGI [3]: > 349 µM
- TGI [4]: > 349 µM
- TGI [5]: > 349 µM
- TGI [6]: > 349 µM
- TGI [53]: > 349 µM
- TGI [7]: > 349 µM
- TGI [8]: > 349 µM
- TGI [9]: > 349 µM
- TGI [10]: > 349 µM
- TGI [11]: > 349 µM
- TGI [13]: > 349 µM
- TGI [14]: > 349 µM
- TGI [54]: > 349 µM
- TGI [15]: > 349 µM
- TGI [16]: > 349 µM
- TGI [17]: > 349 µM
- TGI [18]: > 349 µM
- TGI [55]: > 349 µM
- TGI [19]: > 349 µM
- TGI [20]: > 349 µM
- TGI [21]: > 349 µM
- TGI [23]: > 349 µM
- TGI [24]: > 349 µM
- TGI [25]: > 349 µM
- TGI [27]: > 349 µM
- TGI [28]: > 349 µM
- TGI [56]: > 349 µM
- TGI [29]: > 349 µM
- TGI [31]: > 349 µM
- TGI [32]: > 349 µM
- TGI [33]: > 349 µM
- TGI [34]: > 349 µM
- TGI [36]: > 349 µM
- TGI [37]: > 349 µM
- TGI [39]: > 349 µM
- TGI [40]: > 349 µM
- TGI [41]: > 349 µM
- TGI [57]: > 349 µM
- TGI [42]: > 349 µM
- TGI [46]: > 349 µM
- TGI [47]: > 349 µM
- TGI [48]: > 349 µM
- TGI [58]: > 34.9 µM
- TGI [49]: > 349 µM
- TGI [50]: > 349 µM
- TGI [52]: > 349 µM

Source: PubChem BioAssay (NCI)
